Experimental data taken from patent US20120077738A1, “COMPOSITIONS AND METHODS FOR […] SUSCEPTIBILITY TO ANTIVIRAL AGENTS” (priority 2010, published 2012).

Tested on: genotype 1 HCV
Test: HCV outcome after liver transplant in HIV/HCV coinfected patients by calcineurin inhibitor
Assay type: in vivo, human
Excerpt: Calcineurin Inhibition Use posttransplant in HIV/HCV infected patients. Eighty HIV/HCV coinfected patients received liver transplants as part of the HIV and transplantation trial from 2003-2009. Of these patients 61 were infected with genotype 1 HCV and received only a liver (not liver+kidney) and are further described here and in the corresponding data shown in FIGS. 1-14.

Structure (SMILES): C=CC[C@@H]1/C=C(\C)C[C@H](C)C[C@H](OC)[C@H]2O[C@@](O)(C(=O)C(=O)N3CCCC[C@H]3C(=O)O[C@H](/C(C)=C/[C@@H]3CC[C@@H](O)[C@H](OC)C3)[C@H](C)[C@@H](O)CC1=O)[C@H](C)C[C@@H]2OC [Tacrolimus]
- failed interferon therapy (by calcineurin inhibitor started immediately post transplant, two of the CsA group had switched to Tacrolimus): 13 patients
- Sustained Virologic Response (negative HCV PCR 6 months or more after HCV therapy was stopped) (patients on Tacrolimus immediately post transplant who received interferon based therapy): one patient out of these 14
